Source: patent publication EP0753009B1, “MALARIA PEPTIDES” (Oxxon Pharmaccines Limited, priority 1994, dated 2001)
Marks after values point to notes of the source that are not given here. Residues, ends and D or L forms follow the SMILES beside them.

Each molecule was assayed on HLA matched or autologous B cell line targets pre-pulsed with the peptide (assay: Standard CTL chromium release assay with restimulated lymphocytes from malaria-exposed Gambians (secondary CTL response)). Conditions: HLA-A2.
Assay type: cell-based, humans
Protocol: Peptides shown to bind to a particular HLA class I allele were tested for CTL recognition in assays using lymphocytes from malaria-exposed Gambians, as described previously^1. A minority of peptides, synthesized to correspond to a peptides binding motif were not tested in the relevant assembly assay but tested only for CTL recognition. Cells from 82 adult Gambians and 53 Gambian children, all exposed to malaria, were used in the course of these studies. The children and adults were HLA typed using cellular or molecular techniques as described previously^1. Peptides were incubated with cells either singly, or in pools as described^1 at concentrations of 10-100µM. Peptides could either be left with the cells for the duration of restimulation (as reported^1) or washed off after an hour. Cells were cultured for 1-3 weeks before a standard CTL chromium release assay^1 was performed using HLA matched or autologous B cell line targets pre-pulsed with the peptide to be tested. Peptides were tested either singly or in pools for CTL recognition.
In the case of `CC[C@H](C)[C@H](NC(=O)[C@@H](NC(=O)[C@H](CCCCN)NC(=O)[C@H](CC(C)C)NC(=O)[C@@H](N)Cc1ccc(O)cc1)[C@@H](C)O)C(=O)N[C@@H](CCC(N)=O)C(=O)N[C@@H](CC(N)=O)C(=O)N[C@@H](CO)C(=O)N[C@@H](CC(C)C)C(=O)O` [cp36] (H-YLKTIQNSL-OH), the “epitope for a secondary cytotoxic T lymphocyte response (asterisk mark)” value (shortened to “epitope”) is reported as “cp36 *”.
`CC[C@H](C)[C@H](NC(=O)[C@H](CCCCN)NC(=O)[C@H](CCC(N)=O)NC(=O)[C@H](CC(C)C)NC(=O)[C@@H](N)Cc1ccc(O)cc1)C(=O)N[C@@H](CCC(N)=O)C(=O)N[C@@H](CC(N)=O)C(=O)N[C@@H](CO)C(=O)N[C@@H](CC(C)C)C(=O)O` [cp37] (H-YLQKIQNSL-OH) was tested, and the “epitope” value was “cp37 *”.
`CC[C@H](C)[C@H](NC(=O)[C@H](CCCCN)NC(=O)[C@H](CCC(N)=O)NC(=O)[C@H](CC(C)C)NC(=O)[C@@H](N)Cc1ccc(O)cc1)C(=O)N[C@@H](CCCCN)C(=O)N[C@@H](CC(N)=O)C(=O)N[C@@H](CO)C(=O)N[C@@H](CC(C)C)C(=O)O` [cp38] (H-YLQKIKNSL-OH) was tested, and the “epitope” value was “cp38 *”.
With `CC(C)C[C@H](NC(=O)[C@H](Cc1ccc(O)cc1)NC(=O)[C@H](CCCCN)NC(=O)[C@@H](NC(=O)[C@H](CC(N)=O)NC(=O)CNC(=O)[C@H](CC(C)C)NC(=O)[C@@H](N)Cc1c[nH]cn1)C(C)C)C(=O)N[C@H](C(=O)O)C(C)C` [tr26] (H-HLGNVKYLV-OH) the “epitope” value was “tr26 *”.
`CC[C@H](C)[C@H](NC(=O)CN)C(=O)N[C@@H](C)C(=O)NCC(=O)NCC(=O)N[C@@H](CC(C)C)C(=O)N[C@@H](C)C(=O)N[C@@H](CC(C)C)C(=O)N[C@@H](CC(C)C)C(=O)O` [tr39] (H-GIAGGLALL-OH) was tested, and the “epitope” value was “tr39 *”.
